The values below are quoted from earlier work in patent US9775900B2, “Photodynamic diagnosis, formulations usable as photosensitizers for this purpose, method for the production and use thereof” (Sanochemia Pharmazeutika AG, priority 2015, dated 2017).

The conditions of this series: pure hypericin.

As for `Cc1cc(O)c2c(=O)c3c(O)cc(O)c4c5c(O)cc(O)c6c(=O)c7c(O)cc(C)c8c1c2c(c34)c(c78)c65` [hypericin, 1,3,4,6,8,13-hexahydroxy-10,11-dimethylphenanthro (1,10,9,8-opqra) perylene-7,14-dione], the solubility in water entry was “water-insoluble”.
